The source of these data is publication PMC10997603, “Cryo-EM structures of pannexin 1 and 3 reveal differences among pannexin isoforms” (Nature Communications, 2024).

Data set [1] addresses T1, PANX1 (PANX1WT) (Homo sapiens, UniProt Q96RD7, R75D/W74R).
T1 construct: full-length; C-terminal TEV site-eGFP-8xHis, GFP/His cut by TEV for purified protein; HEK293S GnTI- (BacMam), GDN-solubilised homoheptamer; transiently transfected HEK293 for patch clamp
Briefly: microscale thermophoresis. It counts as binding.

Data set [2] concerns the target T2, PANX1 (PANX1WT) (Homo sapiens, UniProt Q96RD7, R75A).
T2 construct: full-length; C-terminal TEV site-eGFP-8xHis, GFP/His cut by TEV for purified protein; HEK293S GnTI- (BacMam), GDN-solubilised homoheptamer; transiently transfected HEK293 for patch clamp
Nature of the data set: microscale thermophoresis. The settings on record: read-out: binding affinity. A general note: MST reads how a fluorescent partner responds to local heating, with and without ligand.

Data set [3] deals with T3, PANX1 (PANX1WT) (Homo sapiens, UniProt Q96RD7, R217H).
T3 construct: full-length; C-terminal TEV site-eGFP-8xHis, GFP/His cut by TEV for purified protein; HEK293S GnTI- (BacMam), GDN-solubilised homoheptamer; transiently transfected HEK293 for patch clamp
Briefly: microscale thermophoresis. The conditions noted are these: read-out: apparent binding affinity.

Data set [4] addresses T4, PANX3 (PANX3WT) (Homo sapiens, UniProt Q96QZ0).
T4 construct: full-length, 392 residues; C-terminal TEV site-eGFP-8xHis, GFP/His cut by TEV for purified protein; HEK293S GnTI- (BacMam), GDN-solubilised homoheptamer; transiently transfected HEK293 for patch clamp
T4 sequence (Q96QZ0 1-392): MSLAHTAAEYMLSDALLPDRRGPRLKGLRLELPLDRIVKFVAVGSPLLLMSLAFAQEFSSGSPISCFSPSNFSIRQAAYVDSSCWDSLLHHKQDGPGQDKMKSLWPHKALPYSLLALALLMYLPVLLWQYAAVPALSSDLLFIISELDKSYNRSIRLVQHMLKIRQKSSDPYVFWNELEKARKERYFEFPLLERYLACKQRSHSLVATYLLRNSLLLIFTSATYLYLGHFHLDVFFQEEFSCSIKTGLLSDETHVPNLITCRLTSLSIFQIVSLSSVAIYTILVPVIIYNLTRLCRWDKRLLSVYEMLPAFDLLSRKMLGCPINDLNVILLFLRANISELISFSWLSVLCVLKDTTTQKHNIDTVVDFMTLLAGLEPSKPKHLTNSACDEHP
Briefly: microscale thermophoresis. It counts as binding. The conditions noted are these: read-out: affinity.

Data set [5] has as its target T5, PANX1 (PANX1WT) (Homo sapiens, UniProt Q96RD7).
T5 construct: full-length; C-terminal TEV site-eGFP-8xHis, GFP/His cut by TEV for purified protein; HEK293S GnTI- (BacMam), GDN-solubilised homoheptamer; transiently transfected HEK293 for patch clamp
Briefly: microscale thermophoresis. It counts as binding.

Data set [6] addresses T6, PANX1 (PANX1WT) (Homo sapiens, UniProt Q96RD7, K24A).
T6 construct: full-length; C-terminal TEV site-eGFP-8xHis, GFP/His cut by TEV for purified protein; HEK293S GnTI- (BacMam), GDN-solubilised homoheptamer; transiently transfected HEK293 for patch clamp
Nature of the data set: microscale thermophoresis. It counts as binding.

For data set [7], the target named is T3, PANX1 (PANX1WT). Nature of the data set: whole-cell patch clamp, transfected HEK293. It counts as cell-based. The settings on record: pH 7.4, 23 °C; 100 µM in bath. For orientation: The patch-clamp technique gives a direct electrical read-out from membranes.
In data set [8] the target is T7, PANX1 (PANX1WT) (Homo sapiens, UniProt Q96RD7, W74R/R75D).
T7 construct: full-length; C-terminal TEV site-eGFP-8xHis, GFP/His cut by TEV for purified protein; HEK293S GnTI- (BacMam), GDN-solubilised homoheptamer; transiently transfected HEK293 for patch clamp
Nature of the data set: whole-cell patch clamp, transfected HEK293. It counts as cell-based. The conditions noted are these: pH 7.4, 23 °C; 100 µM in bath.

Data set [9] has as its target T4, PANX3 (PANX3WT). Nature of the data set: whole-cell patch clamp, transfected HEK293. It counts as cell-based. The conditions noted are these: pH 7.4, 23 °C; 100 µM in bath.
Data set [10] concerns the molecule itself. Briefly: cryo-EM structure; purified channel in GDN detergent, 25 mM Tris pH 8.0, 100 mM KCl, 1% glycerol, 5 mg/ml; 1 mM ATP added for PANX3; C7 symmetry imposed.

Read-outs that look alike come from different tables or passages of the source.

T6 sequence (Q96RD7 whole entry K24A): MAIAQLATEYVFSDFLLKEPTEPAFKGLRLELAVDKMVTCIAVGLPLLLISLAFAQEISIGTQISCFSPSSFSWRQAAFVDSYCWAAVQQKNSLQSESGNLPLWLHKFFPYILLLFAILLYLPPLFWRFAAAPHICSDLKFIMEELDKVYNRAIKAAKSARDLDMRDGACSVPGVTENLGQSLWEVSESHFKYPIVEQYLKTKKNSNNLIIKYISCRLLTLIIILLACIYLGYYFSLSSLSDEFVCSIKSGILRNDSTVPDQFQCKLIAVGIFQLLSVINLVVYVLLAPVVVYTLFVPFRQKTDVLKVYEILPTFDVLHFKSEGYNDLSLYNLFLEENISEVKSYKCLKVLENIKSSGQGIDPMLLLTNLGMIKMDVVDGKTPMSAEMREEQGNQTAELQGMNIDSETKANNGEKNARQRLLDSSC
T2 sequence (Q96RD7 whole entry R75A): as the sequence (Q96RD7 whole entry K24A) above, with A24K, R75A counted along it

Take `Nc1ncnc2c1ncn2[C@@H]1O[C@H](CO[P@](=O)(O)O[P@](=O)(O)O[P@@](=O)(O)S)[C@@H](O)[C@H]1O` [ATP-γS]: the Kd is 67 ± 17 µM in data set [1]; 114 ± 28 µM in data set [2]; 186 ± 70 µM in [3]; 69 µM in data set [4]; 18 ± 4 µM in data set [5] (read-out: apparent binding affinity); 94 ± 15 µM in data set [6].
Turning to `Nc1ncnc2c1ncn2[C@@H]1O[C@H](COP(=O)(O)OP(=O)(O)OP(=O)(O)O)[C@@H](O)[C@H]1O` [ATP], the Kd in data set [5] (read-out: affinity) turned out to be 21 ± 11 µM.
In the case of `CC1(C)[C@@H](OC(=O)CCC(=O)O)CC[C@]2(C)[C@H]3C(=O)C=C4[C@@H]5C[C@@](C)(C(=O)O)CC[C@]5(C)CC[C@@]4(C)[C@]3(C)CC[C@@H]12` [carbenoxolone], the “inhibition of currents at 100 μM” value is “inhibition of PANX1R217H currents by CBX similar to PANX1WT” in data set [7]; “decreased inhibition of PANX1WR/RD currents with CBX compared to PANX1WT” in [8]; “We observe weaker CBX sensitivity in PANX3, in comparison to PANX1” in data set [9].

B1: human pannexin 1 (PANX1), full length, wild type (natural protein, UniProt Q96RD7 1-426, looked up)
chain: MAIAQLATEYVFSDFLLKEPTEPKFKGLRLELAVDKMVTCIAVGLPLLLISLAFAQEISIGTQISCFSPSSFSWRQAAFVDSYCWAAVQQKNSLQSESGNLPLWLHKFFPYILLLFAILLYLPPLFWRFAAAPHICSDLKFIMEELDKVYNRAIKAAKSARDLDMRDGACSVPGVTENLGQSLWEVSESHFKYPIVEQYLKTKKNSNNLIIKYISCRLLTLIIILLACIYLGYYFSLSSLSDEFVCSIKSGILRNDSTVPDQFQCKLIAVGIFQLLSVINLVVYVLLAPVVVYTLFVPFRQKTDVLKVYEILPTFDVLHFKSEGYNDLSLYNLFLEENISEVKSYKCLKVLENIKSSGQGIDPMLLLTNLGMIKMDVVDGKTPMSAEMREEQGNQTAELQGMNIDSETKANNGEKNARQRLLDSSC
notes: Pannexin 1, human, UniProt Q96RD7, full length; C-terminal TEV site (ENLYFQ) lies between the protein and eGFP-8xHis; residues of the site may be left after cleavage; Only a map (no model) was deposited; also called PANX1WT; source: HEK293S GnTI- cells, BacMam virus, purified (Ni-NTA, TEV cleavage, SEC) in GDN; not shown: eGFP, C-terminal, cleaved; 8x His, C-terminal, cleaved
The term stoichiometry N denotes a count of units in the complex or per binding partner. For the molecule B1, the “stoichiometry N” value in [10] amounted to 7.

B2: human pannexin 1 germline mutant R217H (natural protein, UniProt Q96RD7 1-426, looked up)
chain: MAIAQLATEYVFSDFLLKEPTEPKFKGLRLELAVDKMVTCIAVGLPLLLISLAFAQEISIGTQISCFSPSSFSWRQAAFVDSYCWAAVQQKNSLQSESGNLPLWLHKFFPYILLLFAILLYLPPLFWRFAAAPHICSDLKFIMEELDKVYNRAIKAAKSARDLDMRDGACSVPGVTENLGQSLWEVSESHFKYPIVEQYLKTKKNSNNLIIKYISCHLLTLIIILLACIYLGYYFSLSSLSDEFVCSIKSGILRNDSTVPDQFQCKLIAVGIFQLLSVINLVVYVLLAPVVVYTLFVPFRQKTDVLKVYEILPTFDVLHFKSEGYNDLSLYNLFLEENISEVKSYKCLKVLENIKSSGQGIDPMLLLTNLGMIKMDVVDGKTPMSAEMREEQGNQTAELQGMNIDSETKANNGEKNARQRLLDSSC
notes: Pannexin 1, human, UniProt Q96RD7, full length, with the germline substitution R217H (TM3); TEV site residues may be left after cleavage; also called PANX1_(R217H); source: HEK293S GnTI- cells, BacMam virus, purified (Ni-NTA, TEV cleavage, SEC) in GDN; not shown: eGFP, C-terminal, cleaved; 8x His, C-terminal, cleaved
Take B2: in data set [10], the binding result was “binds”.

B3: human pannexin 1 double mutant W74R/R75D (natural protein, UniProt Q96RD7 1-426, looked up)
chain: MAIAQLATEYVFSDFLLKEPTEPKFKGLRLELAVDKMVTCIAVGLPLLLISLAFAQEISIGTQISCFSPSSFSRDQAAFVDSYCWAAVQQKNSLQSESGNLPLWLHKFFPYILLLFAILLYLPPLFWRFAAAPHICSDLKFIMEELDKVYNRAIKAAKSARDLDMRDGACSVPGVTENLGQSLWEVSESHFKYPIVEQYLKTKKNSNNLIIKYISCRLLTLIIILLACIYLGYYFSLSSLSDEFVCSIKSGILRNDSTVPDQFQCKLIAVGIFQLLSVINLVVYVLLAPVVVYTLFVPFRQKTDVLKVYEILPTFDVLHFKSEGYNDLSLYNLFLEENISEVKSYKCLKVLENIKSSGQGIDPMLLLTNLGMIKMDVVDGKTPMSAEMREEQGNQTAELQGMNIDSETKANNGEKNARQRLLDSSC
notes: Pannexin 1, human, UniProt Q96RD7, full length, with W74R and R75D; TEV site residues may be left after cleavage; also called PANX1_(WR/RD); PANX1 W74R/R75D; source: HEK293S GnTI- cells, BacMam virus, purified (Ni-NTA, TEV cleavage, SEC) in GDN; not shown: eGFP, C-terminal, cleaved; 8x His, C-terminal, cleaved
As for B3, the binding result in data set [10] is “binds”.

B4: human pannexin 3 (PANX3), full length (natural protein, UniProt Q96QZ0 1-392, looked up)
chain: MSLAHTAAEYMLSDALLPDRRGPRLKGLRLELPLDRIVKFVAVGSPLLLMSLAFAQEFSSGSPISCFSPSNFSIRQAAYVDSSCWDSLLHHKQDGPGQDKMKSLWPHKALPYSLLALALLMYLPVLLWQYAAVPALSSDLLFIISELDKSYNRSIRLVQHMLKIRQKSSDPYVFWNELEKARKERYFEFPLLERYLACKQRSHSLVATYLLRNSLLLIFTSATYLYLGHFHLDVFFQEEFSCSIKTGLLSDETHVPNLITCRLTSLSIFQIVSLSSVAIYTILVPVIIYNLTRLCRWDKRLLSVYEMLPAFDLLSRKMLGCPINDLNVILLFLRANISELISFSWLSVLCVLKDTTTQKHNIDTVVDFMTLLAGLEPSKPKHLTNSACDEHP
modifications: N-acetylglucosamine (NAG) at N71
notes: Pannexin 3, human, UniProt Q96QZ0, full length (392 residues); C-terminal TEV site (ENLYFQ) lies between the protein and eGFP-8xHis; residues of the site may be left after cleavage; Residues 1-24, 160-185 and 373-392 are not seen in the map; also called PANX3WT; source: HEK293S GnTI- cells, BacMam virus, purified (Ni-NTA, TEV cleavage, SEC) in GDN; not shown: eGFP, C-terminal, cleaved; 8x His, …
As to B4, the “stoichiometry N” value in [10] turned out to be 7.
